For the data set the following is noted: human, in vivo, 120 mg.

SMILES strings stand for the structures.

Take `CC(C)(C)c1ccc(-c2nc3cc(O)ccc3[nH]2)cc1` [TQS-621]: the “AR AUC” value was 1.46 and the “AR Cmax” value is given as 1.03. Further, under “male”, the T1/2 came out at 10.2 h and the Tmax (as a rule, the time at which the peak concentration occurs) was 1.75 h. Under “male, 7 days”, the “accumulation ratio based on AUC(0-tau)” value turned out to be 1.46 and the “accumulation ratio based on Cmax” value was found to be 1.30.

The values are drawn from patent US20250281462A1, “THERAPEUTICALLY EFFECTIVE ORAL ADMINISTRATION OF A 2 ARYLBENZIMIDAZOLE” (Tranquis Therapeutics, Inc., priority 2021, published 2025).
